The results in this text go back to patent publication US20100150884A1, “Anticancer Agent to Be Combined with Telomelysin” (priority 2005, published 2010).

Molecules are shown by their SMILES.

Data set [1] concerns various cancer cells cultured in vitro. Nature of the data set: XTT assay, combined effect of Telomelysin and anticancer agent, cell strains not named individually. Format: cell-based, human. The method, then: (§1) Telomelysin was infected to the following various cancer cells cultured in vitro at the concentrations of 0 (Mock), 0.1 or 1 MOI (multiplicity of infection). The cells used were as follows.
(§2) Specifically, 1×10^3 cells from each of the above cell strains were plated in a 96-well plate. After 24 hours, cells were counted and the virus was added to the culture broth at a concentration of 0.1 MOI or 1 MOI.
(§3) On the next day, docetaxel was added to the virus-infected cell culture broth at various concentrations (control, 0.1 nM, 1.0 nM, 10.0 nM and 100.0 nM).
(§4) On day 5 of infection, XTT assay was performed using a kit (Roche Diagnostics). Briefly, the culture broth was removed from the plate. A reaction solution containing XTT reagent was prepared and added to the plate. Cells were cultured for about 4 hours. Then, absorbance was measured with a microtiter plate (ELISA) reader, and the number of viable cells was calculated to thereby confirm antitumor effect.
XTT assays were performed in the same manner as described above using microtubule inhibitor vinorelbine and topoisomerase I inhibitor SN-38 (CPT-11 metabolite) as anticancer agents combined with Telomelysin.
(Tetrazolium dyes change colour on reduction, which living cells bring about.)

A further data set concerns liver. Nature of the data set: HE staining of liver after intratumoral administration. The data set is classed as in vivo, nude mice. Particulars: Telomelysin in combination with docetaxel; six days after the final administration. Here is the method:
(§5) H1299 was inoculated subcutaneously at the back of 5-week old nude mice. When the tumor reached 5-10 mm in size, Telomelysin was administered intratumorally. Six days after the final administration, tumor tissue and liver were stained with HE as described below. Briefly, tissue sections were prepared, deparaffinized and washed with water. Then, distilled water was fed to the tissue section. Hematoxylin solution was added thereto and left stationary for 20 minutes. Then, the section was rinsed with water lightly. The resultant section was fractionated with 1% hydrochloric acid/70% alcohol, followed by color development. Then, the tissue section was washed with water for 10 minutes, passed through 80% ethanol, and dipped in eosin solution for 10 minutes. Subsequently, the tissue section was washed with water lightly, dehydrated, cleared and mounted to thereby perform HE staining.

The test system of a further data set is H1299 tumor tissue. Nature of the data set: HE staining of tumor tissue after intratumoral administration. Particulars: Telomelysin in combination with docetaxel; six days after the final administration. Format: in vivo, nude mice. Here is the method: as §5
Data set [2] relates to human lung cancer cell H1299 and human large bowel cancer cell SW620. Put plainly: Quantitative real-time PCR of E1A gene, proliferation/replication of Telomelysin. The data set is classed as cell-based. Particulars: Telomelysin 0.1 MOI in combination with docetaxel versus alone. Here is the method:
How the proliferation of Telomelysin would be affected when an anticancer agent acting on microtubule is combined with Telomelysin was analyzed by quantitative real-time PCR.
Human lung cancer cell H1299 and human large bowel cancer cell SW620 were infected with Telomelysin at 0.1 MOI for 2 hours. Two hours thereafter, docetaxel was administered. At 12, 24, 36, 48 and 60 hours after the infection, cells were harvested. DNA contained in the cells and in the supernatant was extracted separately. Real-time PCR was performed using primers targeting the E1A gene carried by Telomelysin, to thereby analyze viral proliferation/replication quantitatively. Specifically, 2 μl of DNA extract was added to 18 μl of PCR solution. PCR was performed using E1A primers under the following conditions.
Composition of the PCR solution: • 1×LC FastStart DNA Master SYBR Green I • 3 mM MgCl2 • 0.5 μM each primer Reaction conditions: • 95° C., 10 min • (95° C., 10 sec; 60° C., 15 sec; 72° C., 8 sec)×40 cycles • 70° C., 15 sec • 40° C., 30 sec
In general terms: Quantitative PCR measures a nucleic acid by following its amplification.

The subject of a further data set is tumor cells. Put plainly: Cell cycle analysis with PI (propidium iodide) using flow cytometry. Format: cell-based. Particulars: for sub G0/G1: after G2/M arrest; for cell cycle arrest: began 12 hours after administration. The source says:
The influence of the substance having an antitumor effect and the recombinant virus used in combination in the pharmaceutical composition of the present invention upon the cell cycle of target cells may be examined, for example, by analyzing cell cycle with a nuclear dye PI (propidium iodide) using flow cytometry.
As a result of cell death, cell membranes become unable to retain their states and nuclei are readily stained with a nuclear dye such as PI mentioned above. Therefore, DNA content and cell cycle can be judged from the results of nuclear staining with PI. Here, it should be note that when ratios of S phase and G2/M phase in cell cycle are high in tumor cells, the malignancy is judged to be high.
Cell cycle was analyzed with PI (propidium iodide) using flow cytometry.
(In general: In flow cytometry, cells or beads pass a laser one at a time.)

For data set [3], the system named is H1299 lung cancer cell tumor. Nature of the data set: In vivo antitumor effect, H1299 subcutaneous tumor, tumor size. On the set-up: species or system nude mice. Particulars: combination: Telomelysin intratumoral 1×10^7 pfu and docetaxel 12.5 mg/kg intraperitoneal, three times. The method, then:
H1299 was inoculated subcutaneously at the back of 5-week old nude mice. One, three and five days after the tumor reached 5-10 mm in size, Telomelysin was administered intratumorally at a dose of 1×10^7 pfu/50 μl/mouse and docetaxel was administered at a dose of 12.5 mg/kg intraperitoneally both three times in the total. As a control, PBS was administered intratumorally and intraperitoneally. Tumor size was measured in every three days.

In another data set the test system is H226Br cells. Nature of the data set: XTT assay, combined effect of Telomelysin and anticancer agent. The data set is classed as cell-based, human. Here is the method: as §1, §2, §3, §4
The test system of a further data set is LNCaP cells. The description is as above. Format: cell-based, human. Particulars: docetaxel combined with Telomelysin; day 5 of infection. Here is the method:
as §1, §2, §3, §4

In another data set the test system is T.Tn cells. Described as above. The data set is classed as cell-based, human. Here is the method:
as §1, §2, §3, §4

Another data set relates to HepG2 cells. The description is as above. Format: cell-based, human. Particulars: docetaxel combined with Telomelysin; day 5 of infection. The method, then: as §1, §2, §3, §4
A further data set deals with H1299 cells. The description is as above. The data set is classed as cell-based, human. Particulars: low concentrations of docetaxel combined with Telomelysin 0.1 MOI; day 5 of infection. Here is the method:
as §1, §2, §3, §4

Setting [4] is: Telomelysin and docetaxel in combination.
[5] abbreviates: docetaxel combined with Telomelysin, day 5 of infection.

Regarding `CCc1c2c(nc3ccc(O)cc13)-c1cc3c(c(=O)n1C2)COC(=O)[C@]3(O)CC` [SN-38], in data set [1] (SN-38 combined with Telomelysin, when the concentration of SN-38 was low), the “combined effect (antitumor effect, viable cells)” value (“combined effect” for short) is on record as “combined effect was observed”. For the same compound, the “sensitivity of cell strains to SN-38” value in data set [1] (any of the cell strains tested) was “has sensitivity”.
Consider `CC(=O)O[C@@]12CO[C@@H]1C[C@H](O)[C@@]1(C)C(=O)[C@H](O)C3=C(C)[C@@H](OC(=O)[C@H](O)[C@@H](NC(=O)OC(C)(C)C)c4ccccc4)C[C@@](O)([C@@H](OC(=O)c4ccccc4)[C@H]21)C3(C)C` [docetaxel], for which the “toxicity in liver tissue” value in the data set with liver is listed as “Toxicity was not observed”. In the data set with H1299 tumor tissue, the “hyaline degeneration of tumor cells” value is “observed in a wide range”. In data set [2], the “proliferation efficiency of Telomelysin diffused in supernatant (E1A DNA)” value is recorded as “equal proliferation efficiency”. Moreover, the apoptosis observed entry with tumor cells (setting [4]) and in the data set with tumor cells (docetaxel administered alone) was “apoptosis (DNA fragmentation)” throughout. The “sub G0/G1” value in the data set with tumor cells (setting [4]) and in the data set with tumor cells (docetaxel administered alone) was “increased gradually” throughout. Moreover, the cell cycle arrest result with tumor cells (setting [4]) and with tumor cells (docetaxel administered alone) was “G2/M arrest” throughout. The “antitumor effect (tumor size) compared to the control group and single use groups” value in data set [3] is “still more significant antitumor effect”. Also, the “combined effect” value in the data set with H226Br cells (setting [5]) was “evident combined effect was not observed”; with LNCaP cells it was “evident combined effect was not observed”; with T.Tn cells (setting [5]) it was “evident combined effect was not observed”; with HepG2 cells it was “evident combined effect was not observed”; in the data set with H1299 cells, “especially remarkable”. Further, the “sensitivity of cell strain to docetaxel” value in the data set on H226Br cells (docetaxel itself) and in the data set on T.Tn cells (docetaxel itself) was “sensitivity to docetaxel itself” each time.
As to `CCC1=C[C@@H]2CN(C1)Cc1c([nH]c3ccccc13)[C@@](C(=O)OC)(c1cc3c(cc1OC)N(C)[C@H]1[C@@](O)(C(=O)OC)[C@H](OC(C)=O)[C@]4(CC)C=CCN5CC[C@]31[C@@H]54)C2` [vinorelbine], in data set [1] (vinorelbine combined with Telomelysin), the “combined effect” value was “combined effect almost equal to that shown by docetaxel”.
